Experimental data published in patent US10206394B2, “Herbicidal compounds” (Syngenta Participations AG, priority 2014, dated 2019).
Like-named read-outs stand apart in the source and are kept apart here.

Legend:
Experiment in all cases: Glasshouse assay for herbicidal activity (pre- and post-emergence), percentage phytotoxicity
Type in all cases: in vivo
[1] = test system: Alopecurus myosuroides (ALOMY); details: Alopecurus myosuroides; for pest or weed control at 250 g/ha: visual assessment (100%=total damage, 0%=no damage)
In short: (§1)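 Visually rated damage, 0–100%. PRE spray 1 d after sowing, scored 20 DAA; POST spray ~12 d, scored 15 DAA. Glasshouse at 65% humidity, 16 h day.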

Avena fatua (AVEFA) = details: Avena fatua; for pest or weed control at 250 g/ha: visual assessment (100%=total damage, 0%=no damage)
In short: as §1

[2] = test system: Echinochloa crus-galli (ECHCG); details: Echinochloa crus-galli; for pest or weed control at 250 g/ha: visual assessment (100%=total damage, 0%=no damage)
In short: as §1

Lolium perenne (LOLPE) = details: Lolium perenne; for pest or weed control at 250 g/ha: visual assessment (100%=total damage, 0%=no damage)
In short: as §1

[3] = post-emergence, 360 h, post-emergence, 15 DAA, read-out: Post-emergence herbicidal activity (percentage phytotoxicity) ALOMY POST
[4] = pre-emergence, 480 h, pre-emergence, 20 DAA, read-out: Pre-emergence herbicidal activity (percentage phytotoxicity) ALOMY PRE
[5] = post-emergence, 360 h, post-emergence, 15 DAA, read-out: Post-emergence herbicidal activity (percentage phytotoxicity) AVEFA POST
[6] = pre-emergence, 480 h, pre-emergence, 20 DAA, read-out: Pre-emergence herbicidal activity (percentage phytotoxicity) AVEFA PRE
[7] = post-emergence, 360 h, post-emergence, 15 DAA, read-out: Post-emergence herbicidal activity (percentage phytotoxicity) ECHCG POST
[8] = pre-emergence, 480 h, pre-emergence, 20 DAA, read-out: Pre-emergence herbicidal activity (percentage phytotoxicity) ECHCG PRE
[9] = post-emergence, 360 h, post-emergence, 15 DAA, read-out: Post-emergence herbicidal activity (percentage phytotoxicity) LOLPE POST
[10] = pre-emergence, 480 h, pre-emergence, 20 DAA, read-out: Pre-emergence herbicidal activity (percentage phytotoxicity) LOLPE PRE

SMILES | pest or weed control at 16 g/ha [1, 3] | pest or weed control at 16 g/ha [1, 4] | pest or weed control at 16 g/ha (Avena fatua (AVEFA); [5]) | pest or weed control at 16 g/ha (Avena fatua (AVEFA); [6]) | pest or weed control at 16 g/ha [2, 7] | pest or weed control at 16 g/ha [2, 8] | pest or weed control at 16 g/ha (Lolium perenne (LOLPE); [9]) | pest or weed control at 16 g/ha (Lolium perenne (LOLPE); [10]) | pest or weed control at 250 g/ha [1, 3] | pest or weed control at 250 g/ha [1, 4] | pest or weed control at 250 g/ha (Avena fatua (AVEFA); [5]) | pest or weed control at 250 g/ha (Avena fatua (AVEFA); [6]) | pest or weed control at 250 g/ha [2, 7] | pest or weed control at 250 g/ha [2, 8] | pest or weed control at 250 g/ha (Lolium perenne (LOLPE); [9]) | pest or weed control at 250 g/ha (Lolium perenne (LOLPE); [10])
C/C=C/c1cc(C)c(C2C(=O)CC(CC(=O)NC(C)(C)C)C2=O)c(CC)c1 (centres unmarked) [Compound B136] | 60% | 90% | 100% | 100% | 90% | 100% | 100% | 90% | – | – | – | – | – | – | – | –
C/C=C/c1cc(C)c(C2C(=O)CC(CC(=O)N3CCOCC3)C2=O)c(CC)c1 (centres unmarked) [Compound B137] | – | – | – | – | – | – | – | – | 100% | 20% | 100% | 50% | 90% | 60% | 100% | 50%
Cc1cc(C)c(C2C(=O)CC(CC(=O)NC3(C(F)(F)F)CC3)C2=O)c(C)c1 (centres unmarked) [Compound B138] | – | – | – | – | – | – | – | – | 90% | 80% | 70% | 0% | 80% | 90% | 80% | 70%
Cc1cc(OCC(F)(F)F)cc(C)c1C1C(=O)CC(CC(=O)NC(C)(C)C)C1=O (centres unmarked) [Compound B139] | – | – | – | – | – | – | – | – | 90% | 60% | 90% | 50% | 100% | 100% | 80% | 90%
Cc1cc(Br)cc(C)c1C1C(=O)CC(CC(=O)NC(C)C)C1=O (centres unmarked) [Compound B140] | – | – | – | – | – | – | – | – | 90% | 90% | 90% | 80% | 80% | 70% | 90% | 90%
Cc1cc(Br)cc(C)c1C1C(=O)CC(CC(=O)NCC2CC2(Cl)Cl)C1=O (centres unmarked) [Compound B141] | – | – | – | – | – | – | – | – | 80% | 90% | 90% | 60% | 80% | 70% | 80% | 80%
Cc1cc(Br)cc(C)c1C1C(=O)CC(CC(=O)NCC2CC2C(F)F)C1=O (centres unmarked) [Compound B142] | – | – | – | – | – | – | – | – | 90% | 90% | 90% | 70% | 80% | 0% | 90% | 70%
Cc1cc(-c2ncc(Cl)cc2F)cc(C)c1C1C(=O)CC(CC(=O)NCC2CC2C(F)F)C1=O (centres unmarked) [Compound B143] | – | – | – | – | – | – | – | – | 100% | 90% | 100% | 90% | 100% | 100% | 100% | 100%
CCCNC(=O)CC1CC(=O)C(c2c(C)cc(-c3ncc(Cl)cc3F)cc2C)C1=O (centres unmarked) [Compound B144] | – | – | – | – | – | – | – | – | 100% | 100% | 100% | 100% | 100% | 100% | 100% | 100%
CCCNC(=O)CC1CC(=O)C(c2c(C)cc(Br)cc2C)C1=O (centres unmarked) [Compound B145] | – | – | – | – | – | – | – | – | 80% | 70% | 90% | 60% | 80% | 80% | 90% | 90%
